# Results taken from the supplement of paper PMC6045584.
# ± gives the standard deviation of the averaged measurements.
# Compound: COc1cc2ncnc(Nc3ccc(F)c(Cl)c3)c2cc1OCCCN1CCOCC1 [GEFITINIB]
# Assay: surviving fraction relative to DMSO-only wells; higher = less growth inhibition
# Settings: 50 nM; exposure time: 5 days
# In short: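 Tumour cell lines in log phase were plated in 384-well plates at 250–500 cells per well, then, after 24 hours, exposed continuously for five days to inhibitors at 0.5, 1, 5, 10, 50, 100, 500 and 1000 nM. Viability came from CellTiter-Glo luminescence, and surviving fraction is that signal normalised to the median of DMSO-only wells. Plates were read after 10 minutes at room temperature, and each line, screened three times, was kept only when replicate Pearson r was >0.7 and median Z' was >0.3.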
row,Test System,surviving fraction
1,JURKAT HAEMATOPOIETIC AND LYMPHOID TISSUE,1.05 ± 0.028
2,SJSA1 BONE,1.8 ± 0.065
3,YAMATO SYNOVIAL,1.42 ± 0.086
4,C33A CERVIX,0.91 ± 0.052
5,PCI30 HEADNECK,0.959 ± 0.095
6,SCC003 HEADNECK,0.945 ± 0.026
7,HUO3N1 BONE,1.08 ± 0.044
8,T47D BREAST,1.13 ± 0.015
9,NOS1 BONE,1.17 ± 0.085
10,HELA CERVIX,1.15 ± 0.029
11,NY BONE,1.07 ± 0.026
12,CASKI CERVIX,0.556 ± 0.015
13,BT549 BREAST,1.17 ± 0.14
14,COLO320DM LARGE INTESTINE,1.14 ± 0.085
15,MDAMB361 BREAST,0.89 ± 0.14
16,HOSMNG BONE,1.05 ± 0.085
17,A549 LUNG,1.05 ± 0.033
18,CAL51 BREAST,1.08 ± 0.035
19,OSHN BONE,1.15 ± 0.0076
20,MCF7 BREAST,0.965 ± 0.017
21,HT1080 SOFT TISSUE,1.01 ± 0.029

row,Test System,surviving fraction
1,MDAMB157 BREAST,0.911 ± 0.1
2,143B BONE,1.14 ± 0.077
3,SIHA CERVIX,1.12 ± 0.11
4,MDAMB134 BREAST,1.2 ± 0.2
5,SG32 HEADNECK,1.28 ± 0.066
6,NCIH441 LUNG,1.07 ± 0.18
7,CCK81 LARGE INTESTINE,0.628 ± 0.091
8,SG31 HEADNECK,0.855 ± 0.24
9,OS25HAL BONE,1.09 ± 0.069
10,HCC1954 BREAST,0.855 ± 0.011
11,VP229 BREAST,0.875 ± 0.084
12,22RV1 PROSTATE,0.987 ± 0.18
13,MDAMB231 BREAST,1.06 ± 0.027
14,RDES SOFT TISSUE,1.03 ± 0.26
15,LM7 BONE,1.12 ± 0.013
16,HMT3552 BREAST,0.946 ± 0.048
17,SNU475 LIVER,1.02 ± 0.045
18,HCC38 BREAST,1.23 ± 0.13
19,HU09 BONE,1.1 ± 0.018
20,ASKA SYNOVIAL,1.19 ± 0.077

# Same assay, conditions: 100 nM; exposure time: 5 days
row,Test System,surviving fraction
1,JURKAT HAEMATOPOIETIC AND LYMPHOID TISSUE,1.03 ± 0.025
2,SJSA1 BONE,1.67 ± 0.033
3,YAMATO SYNOVIAL,1.32 ± 0.1
4,C33A CERVIX,0.973 ± 0.02
5,PCI30 HEADNECK,0.842 ± 0.028
6,SCC003 HEADNECK,0.857 ± 0.035
7,HUO3N1 BONE,1.05 ± 0.039
8,T47D BREAST,1.083 ± 0.01
9,NOS1 BONE,1.11 ± 0.046
10,HELA CERVIX,1.14 ± 0.022
11,NY BONE,1.14 ± 0.016
12,CASKI CERVIX,0.471 ± 0.011
13,BT549 BREAST,1.21 ± 0.046
14,COLO320DM LARGE INTESTINE,1.2 ± 0.1
15,MDAMB361 BREAST,0.859 ± 0.15
16,HOSMNG BONE,1.14 ± 0.026
17,A549 LUNG,1.05 ± 0.051
18,CAL51 BREAST,1.02 ± 0.016
19,OSHN BONE,1.15 ± 0.024
20,MCF7 BREAST,0.951 ± 0.046
21,HT1080 SOFT TISSUE,1.03 ± 0.028

row,Test System,surviving fraction
1,MDAMB157 BREAST,1.02 ± 0.053
2,143B BONE,1.12 ± 0.054
3,SIHA CERVIX,1.1 ± 0.059
4,MDAMB134 BREAST,1.13 ± 0.023
5,SG32 HEADNECK,1.1 ± 0.12
6,NCIH441 LUNG,1.12 ± 0.18
7,CCK81 LARGE INTESTINE,0.325 ± 0.12
8,SG31 HEADNECK,0.845 ± 0.23
9,OS25HAL BONE,1.15 ± 0.019
10,HCC1954 BREAST,0.702 ± 0.0081
11,VP229 BREAST,0.681 ± 0.042
12,22RV1 PROSTATE,1.03 ± 0.15
13,MDAMB231 BREAST,1.06 ± 0.037
14,RDES SOFT TISSUE,1.22 ± 0.12
15,LM7 BONE,1.12 ± 0.1
16,HMT3552 BREAST,0.94 ± 0.036
17,SNU475 LIVER,0.979 ± 0.038
18,HCC38 BREAST,1.29 ± 0.03
19,HU09 BONE,1.09 ± 0.075
20,ASKA SYNOVIAL,1.16 ± 0.073

# Same assay, conditions: 500 nM; exposure time: 5 days
row,Test System,surviving fraction
1,JURKAT HAEMATOPOIETIC AND LYMPHOID TISSUE,1.02 ± 0.018
2,SJSA1 BONE,1.68 ± 0.052
3,YAMATO SYNOVIAL,1.35 ± 0.08
4,C33A CERVIX,0.551 ± 0.054
5,PCI30 HEADNECK,0.466 ± 0.026
6,SCC003 HEADNECK,0.54 ± 0.043
7,HUO3N1 BONE,0.991 ± 0.052
8,T47D BREAST,1.065 ± 0.0084
9,NOS1 BONE,0.871 ± 0.048
10,HELA CERVIX,1.18 ± 0.065
11,NY BONE,0.998 ± 0.019
12,CASKI CERVIX,0.308 ± 0.018
13,BT549 BREAST,1.057 ± 0.007
14,COLO320DM LARGE INTESTINE,1.05 ± 0.14
15,MDAMB361 BREAST,0.834 ± 0.092
16,HOSMNG BONE,1.09 ± 0.091
17,A549 LUNG,1.05 ± 0.047
18,CAL51 BREAST,1.13 ± 0.015
19,OSHN BONE,1.142 ± 0.0066
20,MCF7 BREAST,0.979 ± 0.02
21,HT1080 SOFT TISSUE,1.042 ± 0.0056

row,Test System,surviving fraction
1,MDAMB157 BREAST,0.991 ± 0.026
2,143B BONE,1.14 ± 0.11
3,SIHA CERVIX,0.99 ± 0.084
4,MDAMB134 BREAST,1 ± 0.067
5,SG32 HEADNECK,0.826 ± 0.15
6,NCIH441 LUNG,1.01 ± 0.21
7,CCK81 LARGE INTESTINE,0.0823 ± 0.018
8,SG31 HEADNECK,0.732 ± 0.2
9,OS25HAL BONE,1.08 ± 0.069
10,HCC1954 BREAST,0.459 ± 0.064
11,VP229 BREAST,0.347 ± 0.028
12,22RV1 PROSTATE,1.04 ± 0.17
13,MDAMB231 BREAST,1.06 ± 0.018
14,RDES SOFT TISSUE,1.16 ± 0.19
15,LM7 BONE,0.963 ± 0.054
16,HMT3552 BREAST,0.94 ± 0.017
17,SNU475 LIVER,0.939 ± 0.021
18,HCC38 BREAST,1.1 ± 0.096
19,HU09 BONE,1.1 ± 0.16
20,ASKA SYNOVIAL,1.08 ± 0.053

# Same assay, conditions: 1000 nM; exposure time: 5 days
row,Test System,surviving fraction
1,JURKAT HAEMATOPOIETIC AND LYMPHOID TISSUE,1.016 ± 0.0051
2,SJSA1 BONE,1.68 ± 0.018
3,YAMATO SYNOVIAL,1.09 ± 0.046
4,C33A CERVIX,0.457 ± 0.058
5,PCI30 HEADNECK,0.393 ± 0.033
6,SCC003 HEADNECK,0.47 ± 0.029
7,HUO3N1 BONE,0.974 ± 0.052
8,T47D BREAST,1.06 ± 0.021
9,NOS1 BONE,0.754 ± 0.031
10,HELA CERVIX,1.14 ± 0.058
11,NY BONE,0.969 ± 0.032
12,CASKI CERVIX,0.213 ± 0.0095
13,BT549 BREAST,1.11 ± 0.15
14,COLO320DM LARGE INTESTINE,1.06 ± 0.094
15,MDAMB361 BREAST,0.834 ± 0.13
16,HOSMNG BONE,1.07 ± 0.021
17,A549 LUNG,1.03 ± 0.037
18,CAL51 BREAST,1.07 ± 0.066
19,OSHN BONE,1.11 ± 0.021
20,MCF7 BREAST,0.964 ± 0.027
21,HT1080 SOFT TISSUE,1.01 ± 0.034

row,Test System,surviving fraction
1,MDAMB157 BREAST,0.864 ± 0.066
2,143B BONE,1.13 ± 0.15
3,SIHA CERVIX,0.956 ± 0.061
4,MDAMB134 BREAST,1.1 ± 0.064
5,SG32 HEADNECK,0.961 ± 0.094
6,NCIH441 LUNG,0.963 ± 0.058
7,CCK81 LARGE INTESTINE,0.076 ± 0.012
8,SG31 HEADNECK,0.54 ± 0.11
9,OS25HAL BONE,1.05 ± 0.029
10,HCC1954 BREAST,0.408 ± 0.016
11,VP229 BREAST,0.281 ± 0.008
12,22RV1 PROSTATE,1.03 ± 0.12
13,MDAMB231 BREAST,1.04 ± 0.037
14,RDES SOFT TISSUE,1.2 ± 0.14
15,LM7 BONE,0.825 ± 0.016
16,HMT3552 BREAST,0.856 ± 0.043
17,SNU475 LIVER,0.898 ± 0.028
18,HCC38 BREAST,1.18 ± 0.053
19,HU09 BONE,0.952 ± 0.1
20,ASKA SYNOVIAL,1.1 ± 0.058
